Source: PMC2788219, “The Acrylamide (S)-2 As a Positive and Negative Modulator of Kv7 Channels Expressed in Xenopus laevis Oocytes” (PLoS ONE, 2009)

Columns and labels:
Format in all cases: cell-based
Kv7.2 = target: T1, Kv7.2 (Homo sapiens, UniProt O43526); assay: […] flux in transfected CHO cells; two-electrode voltage clamp in Xenopus oocytes
T1 construct: gene KCNQ2

Kv7.4 = target: T2, Kv7.4 (Homo sapiens, UniProt P56696); assay: […] flux in transfected CHO cells; two-electrode voltage clamp in Xenopus oocytes; W242L loss of sensitivity
T2 construct: gene KCNQ4
T2 sequence (P56696 1-695): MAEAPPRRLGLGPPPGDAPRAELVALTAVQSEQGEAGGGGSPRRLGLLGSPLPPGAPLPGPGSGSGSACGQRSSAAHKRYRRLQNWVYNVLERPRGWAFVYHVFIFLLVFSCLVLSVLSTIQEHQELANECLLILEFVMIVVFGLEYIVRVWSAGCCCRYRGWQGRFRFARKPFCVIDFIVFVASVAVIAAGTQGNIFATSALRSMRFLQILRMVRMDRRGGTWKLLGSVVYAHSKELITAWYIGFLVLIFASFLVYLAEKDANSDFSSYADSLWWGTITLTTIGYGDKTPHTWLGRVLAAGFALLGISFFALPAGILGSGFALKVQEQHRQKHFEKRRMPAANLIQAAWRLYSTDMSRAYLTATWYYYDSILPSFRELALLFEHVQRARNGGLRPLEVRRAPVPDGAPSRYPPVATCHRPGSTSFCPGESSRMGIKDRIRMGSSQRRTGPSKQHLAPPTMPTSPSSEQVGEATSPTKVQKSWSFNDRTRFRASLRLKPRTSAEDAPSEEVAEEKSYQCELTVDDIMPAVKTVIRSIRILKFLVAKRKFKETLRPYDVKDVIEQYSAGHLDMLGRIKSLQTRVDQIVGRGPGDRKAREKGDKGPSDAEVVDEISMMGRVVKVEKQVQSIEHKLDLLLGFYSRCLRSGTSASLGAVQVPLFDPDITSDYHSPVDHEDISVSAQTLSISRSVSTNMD

Kv7.2-W236L = target: T3, Kv7.2-W236L (Homo sapiens, UniProt O43526, W236L); assay: […] flux in transfected CHO cells; two-electrode voltage clamp in Xenopus oocytes (inhibition)
T3 construct: gene KCNQ2

Kv7.1 = target: T4, Kv7.1 (Homo sapiens, UniProt P51787); assay: two-electrode voltage clamp in Xenopus oocytes, […]; weak inhibition; settings: read-out: % of control current at +40 mV (10 μM)
T4 construct: gene KCNQ1
T4 sequence (P51787 1-676): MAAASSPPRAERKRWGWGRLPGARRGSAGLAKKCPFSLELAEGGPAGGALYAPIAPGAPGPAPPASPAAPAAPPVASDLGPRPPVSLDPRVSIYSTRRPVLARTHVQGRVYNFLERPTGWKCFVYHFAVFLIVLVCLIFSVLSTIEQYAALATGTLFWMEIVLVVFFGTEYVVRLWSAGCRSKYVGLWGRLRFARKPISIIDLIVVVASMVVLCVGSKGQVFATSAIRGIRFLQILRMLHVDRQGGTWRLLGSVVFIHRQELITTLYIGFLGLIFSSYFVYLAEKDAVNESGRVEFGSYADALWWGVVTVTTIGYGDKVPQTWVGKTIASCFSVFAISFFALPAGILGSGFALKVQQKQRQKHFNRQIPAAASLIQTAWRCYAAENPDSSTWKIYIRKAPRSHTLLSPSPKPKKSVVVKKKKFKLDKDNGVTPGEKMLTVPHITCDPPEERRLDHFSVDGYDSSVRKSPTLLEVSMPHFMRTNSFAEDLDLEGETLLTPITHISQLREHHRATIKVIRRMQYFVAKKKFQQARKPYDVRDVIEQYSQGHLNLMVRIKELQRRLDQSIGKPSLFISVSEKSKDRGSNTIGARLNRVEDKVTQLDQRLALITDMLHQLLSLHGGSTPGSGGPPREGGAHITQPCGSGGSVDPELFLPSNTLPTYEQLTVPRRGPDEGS

Kv7.5 = target: T5, Kv7.5 (Homo sapiens, UniProt Q9NR82); assay: two-electrode voltage clamp in Xenopus oocytes, […]; current […] of control at +[…] mV; settings: read-out: % of control current at +40 mV (10 μM)
T5 construct: gene KCNQ5
T5 sequence (Q9NR82 whole entry): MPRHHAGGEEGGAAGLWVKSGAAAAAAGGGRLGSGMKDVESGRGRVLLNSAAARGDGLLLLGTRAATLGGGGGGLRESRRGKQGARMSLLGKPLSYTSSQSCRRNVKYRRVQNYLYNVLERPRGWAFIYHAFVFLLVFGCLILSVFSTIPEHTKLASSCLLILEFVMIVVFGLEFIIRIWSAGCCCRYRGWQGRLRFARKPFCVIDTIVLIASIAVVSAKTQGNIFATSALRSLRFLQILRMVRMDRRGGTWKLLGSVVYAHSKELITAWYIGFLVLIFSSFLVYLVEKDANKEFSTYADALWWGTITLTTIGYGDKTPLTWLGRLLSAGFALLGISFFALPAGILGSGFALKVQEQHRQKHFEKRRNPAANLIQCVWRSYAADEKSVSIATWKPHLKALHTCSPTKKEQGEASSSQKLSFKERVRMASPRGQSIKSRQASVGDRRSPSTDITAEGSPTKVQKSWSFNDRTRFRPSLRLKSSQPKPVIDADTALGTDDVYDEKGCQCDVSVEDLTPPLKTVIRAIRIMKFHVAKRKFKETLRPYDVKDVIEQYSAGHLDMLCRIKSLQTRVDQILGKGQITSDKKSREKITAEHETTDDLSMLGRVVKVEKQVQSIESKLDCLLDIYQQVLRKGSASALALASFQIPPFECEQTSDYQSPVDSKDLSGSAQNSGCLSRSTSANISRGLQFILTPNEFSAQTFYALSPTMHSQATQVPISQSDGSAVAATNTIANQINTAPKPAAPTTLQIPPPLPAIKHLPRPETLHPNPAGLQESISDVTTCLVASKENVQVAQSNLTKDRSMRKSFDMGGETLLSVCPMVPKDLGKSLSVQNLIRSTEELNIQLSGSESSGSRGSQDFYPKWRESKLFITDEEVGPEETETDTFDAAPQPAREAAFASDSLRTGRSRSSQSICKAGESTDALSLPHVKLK

T1 sequence (O43526 whole entry): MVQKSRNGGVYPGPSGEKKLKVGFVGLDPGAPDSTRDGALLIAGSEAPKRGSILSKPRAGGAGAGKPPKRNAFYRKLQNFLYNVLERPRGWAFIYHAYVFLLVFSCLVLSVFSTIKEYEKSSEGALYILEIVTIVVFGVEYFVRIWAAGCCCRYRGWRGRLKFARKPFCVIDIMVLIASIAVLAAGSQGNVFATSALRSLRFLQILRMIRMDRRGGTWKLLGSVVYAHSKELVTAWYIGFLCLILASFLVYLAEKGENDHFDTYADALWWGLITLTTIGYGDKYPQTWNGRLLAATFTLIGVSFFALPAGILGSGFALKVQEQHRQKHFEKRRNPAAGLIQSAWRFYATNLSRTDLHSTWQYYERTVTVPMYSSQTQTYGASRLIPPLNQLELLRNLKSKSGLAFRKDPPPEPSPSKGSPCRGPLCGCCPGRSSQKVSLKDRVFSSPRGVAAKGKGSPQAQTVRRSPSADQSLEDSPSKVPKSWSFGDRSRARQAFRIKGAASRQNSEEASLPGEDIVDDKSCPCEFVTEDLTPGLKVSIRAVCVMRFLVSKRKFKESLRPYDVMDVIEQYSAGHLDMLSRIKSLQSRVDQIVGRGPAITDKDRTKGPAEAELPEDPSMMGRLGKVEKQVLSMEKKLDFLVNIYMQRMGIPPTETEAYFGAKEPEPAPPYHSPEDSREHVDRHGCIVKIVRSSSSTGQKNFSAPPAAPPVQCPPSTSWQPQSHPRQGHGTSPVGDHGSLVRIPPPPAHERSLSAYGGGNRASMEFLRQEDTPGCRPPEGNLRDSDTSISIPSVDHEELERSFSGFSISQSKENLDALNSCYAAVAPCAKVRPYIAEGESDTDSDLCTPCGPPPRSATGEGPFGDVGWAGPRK
T3 sequence (O43526 whole entry W236L): as the sequence (O43526 whole entry) above, with W236L counted along it

EC50 (Kv7.2): 170 nM | EC50 (Kv7.4): 220 nM | IC50 (Kv7.2-W236L): 8100 nM | remaining activity at 10 µM (Kv7.1): 87.9 ± 2.2% | remaining activity at 10 µM (Kv7.5): 676 ± 83.5%
SMILES: C[C@H](NC(=O)/C=C/c1ccccc1F)c1ccc2c(c1)N(CC1CC1)CCO2 [(S)-2, (S)-N-[1-(4-Cyclopropylmethyl-3,4-dihydro-2H-benzo[1], [4]oxazin-6-yl)-ethyl]-3-(2-fluoro-phenyl)-acrylamide]
